Assay results taken from paper PMC12114375, “Discovery of Hydrazineyl Amide Derivative of Pseudolaric Acid B for Reprogramming Tumor-Associated Macrophages Against Tumor Growth” (Molecules, 2025).

System: ARG1 mRNA expression in RAW 264.7 cells
Test: qRT-PCR of ARG1 mRNA in IL-4/IL-13-stimulated RAW 264.7 cells
Assay type: cell-based, mouse
Details: Mus musculus, RAW264.7, IL-4/IL-13 (20 ng/mL) plus compound 10 μM, 12 h, stimulated control = 100%, mean ± SD, read-out: ARG1 mRNA Relative Expression (%)
From the text: We first investigated the impacts of a series of commercially available natural pseudolaric acids or their O-pyranosides (Figure 1) on the pro-tumoral phenotype of TAMs, which play a critical role in anti-tumor immune response modulation. […] In contrast, M1-biased macrophages combat tumor growth and bacterial infections by expressing inducible nitric oxide synthase 2 (NOS2), which catalyzes the production of nitric oxide (NO). Recognizing the pivotal roles of ARG1 and NOS2, we utilized these molecules as key biomarkers and effectors for assessing macrophage immune function. In our experiments, the mouse monocyte–macrophage leukemia cell line RAW 264.7 was induced with IL-4/IL-13 to acquire an M2-like pro-tumoral phenotype. Concurrently, the cells were treated with the pseudolaric acid-related natural products 1–7 at a concentration of 10 μM for 12 h. Additionally, PLX3397 was used as a positive control at a concentration of 0.5 μM. […] As shown in Table 1 and Figure S1A, pseudolaric acid B (1), its deacetoxyl analogue 2 (pseudolaric acid C), and β-D-glucoside 7 substantially attenuated the upregulation of ARG1 mRNA expression induced by IL-4/IL-13, with statistically significant effects. In contrast, bis-carboxylic acids analogs 4 (pseudolaric acid C2) and 6 (demethoxydeacetoxypseudolaric acid B) have no significant impact on ARG1 mRNA expression.
With these carboxylic acid-modified derivatives in hand, we investigated their impact at 10 μM on ARG1 and NOS2 mRNA expression in RAW 264.7 cells pre-stimulated with IL-4/IL-13 to evaluate the effects on the pro-tumor phenotype of macrophages. […] Further removal of one hydroxyl from the glycerol moiety 15 further enhanced the inhibitory effect on ARG1 expression but had no significant impact on NOS2 expression.
Total RNA was isolated from cells using the EZ-press RNA Purification Kit (EZBioscience, Suzhou, China) and subjected to reverse transcription with the 5×HiScript II qRT SuperMix II (Vazyme, Nanjing, China). PCR was performed with the 2×ChamQ Universal SYBR qPCR Master Mix (Vazyme, Nanjing, China). All primers for qRT-PCR are described in Table S1. The 2^−∆∆Ct method was utilized to calculate the fold change in gene expression, with the expression levels in the stimulated group set as the baseline for normalization.

`COC(=O)C1=CC[C@@]23CC[C@@H]([C@@](C)(/C=C/C=C(\C)C(=O)NNCCO)OC2=O)[C@@]3(OC(C)=O)CC1` [compound 12, Methyl(3R,4S,4aS,9aR)-4a-acetoxy-3-((1E,3E)-5-(2-(2-hydroxyethyl)hydrazineyl)-4-methyl-5-oxopenta-1,3-dien-1-yl)-3-methyl-1-oxo-3,4,4a,5,6,9-hexahydro-1H-4,9a-ethanocyclohepta[c]pyran-7-carboxylate] was tested, and the mrna remaining at 10 µM was 1.4 ± 1.1%.
